Test results: patent US12128028B2, “Heterocyclic sulfonamide derivatives and pharmaceutical uses thereof” (METRION BIOSCIENCES LIMITED, priority 2018, dated 2024)

Target: human Kv1.3 (Homo sapiens (Human), UniProt P22001)
Experiment: Kv1.3 potency evaluation, automated patch clamp electrophysiology (QPatch HT) in CHO-Kv1.3 cells
Format: cell-based
Settings: whole-cell QPatch HT, % inhibition of charge, step to +30 mV, four concentrations, N≥3 cells, read-out: hKv1.3 IC50
Procedure, shortened: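 Automated whole-cell patch clamp in CHO cells stably expressing human Kv1.3; steps from −80 to +30 mV (500 ms) at 0.067 Hz. Four cumulative concentrations after vehicle (0.1-0.3% DMSO); charge inhibition vs vehicle fitted by four-parameter logistic for IC50, N≥3 cells.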

Chain of human Kv1.3 (P22001 whole entry): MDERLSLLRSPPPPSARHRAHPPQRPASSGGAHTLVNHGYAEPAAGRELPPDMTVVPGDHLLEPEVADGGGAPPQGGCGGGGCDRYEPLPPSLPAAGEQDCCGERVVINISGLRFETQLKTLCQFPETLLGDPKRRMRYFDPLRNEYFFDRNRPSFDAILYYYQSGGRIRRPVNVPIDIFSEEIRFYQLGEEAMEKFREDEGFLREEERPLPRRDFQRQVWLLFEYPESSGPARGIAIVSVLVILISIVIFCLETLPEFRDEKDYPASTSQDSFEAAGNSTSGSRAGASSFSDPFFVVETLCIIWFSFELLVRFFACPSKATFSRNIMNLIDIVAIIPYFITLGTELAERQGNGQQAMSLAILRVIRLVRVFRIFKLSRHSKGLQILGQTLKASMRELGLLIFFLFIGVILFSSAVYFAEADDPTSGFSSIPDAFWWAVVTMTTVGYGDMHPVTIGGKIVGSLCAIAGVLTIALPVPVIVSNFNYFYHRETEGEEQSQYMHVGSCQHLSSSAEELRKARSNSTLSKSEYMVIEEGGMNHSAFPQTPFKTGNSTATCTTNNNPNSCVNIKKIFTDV

For `CC1(C)CC(NC(=O)[C@@]2(C)CN=C(C34CC(N(Cc5ccc(C(F)(F)F)cc5)S(=O)(=O)c5ccc(F)cc5)(C3)C4)N2)C1` (mixture of isomers) [Example 280], which IC50 is on record?
Its IC50 is 615 nM.

Which IC50 does the source give for `CCCS(=O)(=O)N(Cc1ccc(Cl)c(Cl)c1)C12CC(C3=NC(C)(C)[C@H](C(=O)N4CC5CCC(C4)C5(F)F)N3)(C1)C2` (mixture of isomers) [Example 187] here?
Its IC50 is 110 nM.

With `CC1(C)N=C(C23CC(N(Cc4ccc(Cl)cc4)S(=O)(=O)CCC(F)F)(C2)C3)N[C@H]1C(=O)NCCC(F)(F)F` (mixture of isomers) [Example 137] as the compound, how does the IC50 read?
The IC50 was 82 nM.

How did the IC50 turn out when `CC1(C)N=C(C23CC(N(Cc4ccc(Cl)c(F)c4)S(=O)(=O)c4ccccc4O)(C2)C3)N[C@H]1C(=O)NCCC(F)(F)F` (mixture of isomers) [Example 225] was run?
Its IC50 is 182 nM.

With `CC1(C)N=C(C23CC(N(Cc4ccc(C(F)(F)F)cc4)S(=O)(=O)c4ccc(F)cc4)(C2)C3)NC1C(=O)NCC1CC(F)(F)C1` (stereo not drawn) [Example 186] as the compound, how does the IC50 read?
Its IC50 is 110 nM.

`CCCS(=O)(=O)N(Cc1ccc(Cl)c(Cl)c1)C12CC(C3=NC(C)(C)[C@H](C(=O)NC45CC(C4)C5)N3)(C1)C2` (mixture of isomers) [Example 32] was tested. Which IC50 did it give?
The IC50 was 43 nM.

How did the IC50 turn out when `NC(=O)C1(Cc2ccccc2)CN=C(C23CC(N(Cc4ccc(C(F)(F)F)cc4)S(=O)(=O)c4ccc(F)cc4)(C2)C3)N1` (stereo not drawn) [Example 263] was run?
Its IC50 is 400 nM.

With `CC1(C)N=C(C23CC(N(Cc4ccc(Cl)c(F)c4)S(=O)(=O)c4ccccc4)(C2)C3)N[C@H]1C(=O)N1CCCC12CCC2` (mixture of isomers) [Example 71] as the compound, how does the IC50 read?
The IC50 was 57 nM.

`CN(CC(C)(C)F)C(=O)[C@@H]1NC(C23CC(N(Cc4ccc(Cl)c(F)c4)S(=O)(=O)c4ccccc4)(C2)C3)=NC1(C)C` (mixture of isomers) [Example 95] was tested. Which IC50 did it give?
The IC50 was 64 nM.

With `CC1(C)N=C(C23CC(N(Cc4ccc(Cl)cc4)S(=O)(=O)c4ccc(Cl)cc4)(C2)C3)N[C@H]1C(=O)NCCC(F)(F)F` (mixture of isomers) [Example 66] as the compound, how does the IC50 read?
The IC50 was 53 nM.

For `CC1(NC(=O)[C@@]2(C)CN=C(C34CC(N(Cc5ccc(C(F)(F)F)cc5)S(=O)(=O)c5ccc(F)cc5)(C3)C4)N2)CCC1` (mixture of isomers) [Example 228], which IC50 is on record?
The IC50 was 190 nM.

With `CC1(C)N=C(C23CC(N(Cc4ccc(Cl)c(Cl)c4)S(=O)(=O)c4ccccc4)(C2)C3)N[C@H]1C(=O)NCC1CC(F)(F)C1` (mixture of isomers) [Example 47] as the compound, how does the IC50 read?
Its IC50 is 47 nM.

Which IC50 does the source give for `CC1(C)N=C(C23CC(N(Cc4ccc(Cl)c(Cl)c4)S(=O)(=O)CCC(F)F)(C2)C3)N[C@H]1C(=O)NC12CC(C1)C2` (mixture of isomers) [Example 72] here?
Its IC50 is 57 nM.

Which IC50 does the source give for `CC1(C)N=C(C23CC(N(Cc4ccc(Cl)c(F)c4)S(=O)(=O)c4ccccc4)(C2)C3)N[C@H]1C(=O)NC1CCC1` (mixture of isomers) [Example 60] here?
Its IC50 is 51 nM.

How did the IC50 turn out when `CC1(C)N=C(C23CC(N(Cc4ccc(Cl)cc4)S(=O)(=O)CC(F)(F)F)(C2)C3)N[C@H]1C(=O)NCCC(F)(F)F` (mixture of isomers) [Example 276] was run?
Its IC50 is 575 nM.

`CC(F)(F)CCS(=O)(=O)N(Cc1ccc(Cl)c(Cl)c1)C12CC(C3=NC(C)(C)[C@H](C(=O)NCC4CC(F)(F)C4)N3)(C1)C2` (mixture of isomers) [Example 158] was tested. Which IC50 did it give?
The IC50 was 95 nM.

For `CC1(C)N=C(C23CC(N(Cc4ccc(Cl)c(F)c4)S(=O)(=O)c4ccccc4)(C2)C3)N[C@H]1C(=O)N1CC(C(F)(F)F)C1` (mixture of isomers) [Example 172], which IC50 is on record?
Its IC50 is 103 nM.

`CC1(C)N=C(C23CC(N(Cc4ccc(Cl)c(F)c4)S(=O)(=O)c4ccccc4)(C2)C3)N[C@H]1C(=O)NC1CC1` (mixture of isomers) [Example 68] was tested. Which IC50 did it give?
Its IC50 is 55 nM.

For `CC1(C)N=C(C23CC(N(Cc4ccc(Cl)cc4)S(=O)(=O)c4ccoc4)(C2)C3)N[C@H]1C(=O)NCCC(F)(F)F` (mixture of isomers) [Example 8], which IC50 is on record?
Its IC50 is 27 nM.

Which IC50 does the source give for `CC(C)(C)CNC(=O)[C@@H]1NC(C23CC(N(Cc4ccc(Cl)c(Cl)c4)S(=O)(=O)CCC(F)F)(C2)C3)=NC1(C)C` (mixture of isomers) [Example 106] here?
Its IC50 is 70 nM.

For `CC1(C)N=C(C23CC(N(Cc4ccc(Cl)c(F)c4)S(=O)(=O)c4ccccc4)(C2)C3)N[C@H]1C(=O)NCCC(F)(F)F` (mixture of isomers) [Example 13], which IC50 is on record?
Its IC50 is 37 nM.

For `CC1(C)N=C(C23CC(N(Cc4ccc(Cl)c(F)c4)S(=O)(=O)c4ccccc4)(C2)C3)N[C@H]1C(=O)NCC1CC1` (mixture of isomers) [Example 56], which IC50 is on record?
The IC50 was 50 nM.

`CC1(C)N=C(C23CC(N(Cc4ccc(Cl)c(F)c4)S(=O)(=O)c4ccccc4)(C2)C3)N[C@H]1C(=O)N1CC2(C1)CC(F)(F)C2` (mixture of isomers) [Example 198] was tested. Which IC50 did it give?
Its IC50 is 126 nM.

How did the IC50 turn out when `CC1(C)N=C(C23CC(N(Cc4ccc(Cl)cc4)S(=O)(=O)c4ccccc4)(C2)C3)N[C@H]1C(=O)NCC1CC(F)(F)C1` (mixture of isomers) [Example 37] was run?
Its IC50 is 45 nM.

How did the IC50 turn out when `CN(C)C(=O)[C@H]1CN=C(C23CC(N(Cc4ccc(C(F)(F)F)cc4)S(=O)(=O)c4ccc(F)cc4)(C2)C3)N1` [Example 277] was run?
The IC50 was 593 nM.

For `CN(CC1CC1(F)F)C(=O)[C@@H]1NC(C23CC(N(Cc4ccc(Cl)c(F)c4)S(=O)(=O)c4ccccc4)(C2)C3)=NC1(C)C` (mixture of isomers) [Example 69], which IC50 is on record?
Its IC50 is 55 nM.

`CC1(C)N=C(C23CC(N(Cc4ccc(Cl)c(F)c4)S(=O)(=O)c4ccccc4)(C2)C3)N[C@H]1C(=O)NC12CC(C1)C2` [Example 1, (R)-N-(Bicyclo[1.1.1]pentan-1-yl)-2-(3-(N-(4-chloro-3-fluorobenzyl)phenylsulfonamido)bicyclo[1.1.1]pentan-1-yl)-4,4-dimethyl-4,5-dihydro-1H-imidazole-5-carboxamide] was tested. Which IC50 did it give?
The IC50 was 35 nM.

For `CC1(C)N=C(C23CC(N(Cc4ccc(Cl)c(F)c4)S(=O)(=O)c4ccccc4)(C2)C3)N[C@H]1C(=O)NC1CCC(F)(F)CC1` (mixture of isomers) [Example 104], which IC50 is on record?
Its IC50 is 69 nM.

`CC1(C)N=C(C23CC(N(Cc4ccc(C(F)(F)F)cc4)S(=O)(=O)c4ccc(F)cc4)(C2)C3)N[C@@]1(C)C(=O)NCCC(F)(F)F` (mixture of isomers) [Example 255] was tested. Which IC50 did it give?
Its IC50 is 341 nM.

For `CC1(C)N=C(C23CC(N(Cc4ccc(C(F)(F)F)cc4)S(=O)(=O)c4ccc(F)cc4)(C2)C3)NC1C(=O)NCCC(F)(F)F` (stereo not drawn) [Example 193], which IC50 is on record?
The IC50 was 115 nM.

With `CC1(C)N=C(C23CC(N(Cc4ccc(Cl)c(Cl)c4)S(=O)(=O)c4ccccc4)(C2)C3)N[C@H]1C(=O)N1CCC(F)(F)C2(CC2)C1` (mixture of isomers) [Example 167] as the compound, how does the IC50 read?
The IC50 was 99 nM.

How did the IC50 turn out when `CC(C)(C)NC(=O)[C@@H]1NC(C23CC(N(Cc4ccc(Cl)c(F)c4)S(=O)(=O)c4ccccc4)(C2)C3)=NC1(C)C` (mixture of isomers) [Example 175] was run?
Its IC50 is 104 nM.

Which IC50 does the source give for `CN(C)C(=O)[C@@]1(C)CN=C(C23CC(N(Cc4ccc(C(F)(F)F)cc4)S(=O)(=O)c4ccc(F)cc4)(C2)C3)N1` (mixture of isomers) [Example 269] here?
Its IC50 is 481 nM.

For `CC1(C)N=C(C23CC(N(Cc4ccc(Cl)cc4)S(=O)(=O)c4ncc[nH]4)(C2)C3)N[C@H]1C(=O)NCCC(F)(F)F` (mixture of isomers) [Example 291], which IC50 is on record?
Its IC50 is 1120 nM.

With `CC1(C)N=C(C23CC(N(Cc4ccccc4)S(=O)(=O)c4ccccc4)(C2)C3)N[C@H]1C(=O)NCCC(F)(F)F` (mixture of isomers) [Example 25] as the compound, how does the IC50 read?
The IC50 was 40 nM.

Which IC50 does the source give for `C[C@@H](NC(=O)[C@@H]1NC(C23CC(N(Cc4ccc(Cl)c(F)c4)S(=O)(=O)c4ccccc4)(C2)C3)=NC1(C)C)C(F)(F)F` (mixture of isomers) [Example 34] here?
The IC50 was 47 nM.

Which IC50 does the source give for `CC1(C)N=C(C23CC(N(Cc4ccc(Cl)cc4)S(=O)(=O)c4cccc(C#N)c4)(C2)C3)N[C@H]1C(=O)NCCC(F)(F)F` (mixture of isomers) [Example 70] here?
Its IC50 is 56 nM.

Which IC50 does the source give for `C[C@@H]1CCN(C(=O)[C@@H]2NC(C34CC(N(Cc5ccc(Cl)c(F)c5)S(=O)(=O)c5ccccc5)(C3)C4)=NC2(C)C)C1` (mixture of isomers) [Example 64] here?
Its IC50 is 52 nM.

How did the IC50 turn out when `CC1(C)N=C(C23CC(N(Cc4ccc(Cl)c(F)c4)S(=O)(=O)c4ccccc4)(C2)C3)N[C@H]1C(=O)N1CCC12CC(F)(F)C2` (mixture of isomers) [Example 94] was run?
Its IC50 is 64 nM.

Which IC50 does the source give for `CCCS(=O)(=O)N(Cc1ccc(Cl)c(Cl)c1)C12CC(C3=NC(C)(C)[C@H](C(=O)NCCCC(F)(F)F)N3)(C1)C2` (mixture of isomers) [Example 216] here?
Its IC50 is 163 nM.

Which IC50 does the source give for `CN(C(=O)[C@@H]1NC(C23CC(N(Cc4ccc(Cl)c(Cl)c4)S(=O)(=O)c4ccccc4)(C2)C3)=NC1(C)C)C1CC(C(F)F)C1` (mixture of isomers) [Example 153] here?
Its IC50 is 91 nM.

`CC1(C)N=C(C23CC(N(Cc4ccc(Cl)c(F)c4)S(=O)(=O)c4ccccc4)(C2)C3)N[C@H]1C(=O)NCC1(F)CCC1` (mixture of isomers) [Example 36] was tested. Which IC50 did it give?
The IC50 was 45 nM.

Which IC50 does the source give for `CC1(C)N=C(C23CC(N(Cc4ccc(Cl)c(F)c4)S(=O)(=O)c4ccccc4)(C2)C3)N[C@H]1C(=O)N1CCC(F)(F)C1` (mixture of isomers) [Example 91] here?
Its IC50 is 64 nM.

For `CC1(C)N=C(C23CC(N(Cc4ccc(Cl)cc4)S(=O)(=O)c4ccccc4C#N)(C2)C3)N[C@H]1C(=O)NCCC(F)(F)F` (mixture of isomers) [Example 99], which IC50 is on record?
Its IC50 is 67 nM.

Which IC50 does the source give for `CC1(C)N=C(C23CC(N(Cc4ccc(Cl)c(F)c4)S(=O)(=O)c4ccccc4)(C2)C3)N[C@H]1C(=O)NC1(CC(F)(F)F)CC1` (mixture of isomers) [Example 118] here?
The IC50 was 74 nM.

With `CC1(C)N=C(C23CC(N(Cc4ccc(Cl)cc4)S(=O)(=O)c4ccccc4)(C2)C3)N[C@H]1C(=O)NCC(C)(C)C(F)(F)F` (mixture of isomers) [Example 49] as the compound, how does the IC50 read?
The IC50 was 48 nM.

How did the IC50 turn out when `CC1(C)N=C(C23CC(N(Cc4ccc(Cl)cc4)S(=O)(=O)CC4CC(F)(F)C4)(C2)C3)N[C@H]1C(=O)NCCC(F)(F)F` (mixture of isomers) [Example 231] was run?
Its IC50 is 205 nM.

How did the IC50 turn out when `CC(C)S(=O)(=O)N(Cc1ccc(Cl)cc1)C12CC(C3=NC(C)(C)[C@H](C(=O)NCCC(F)(F)F)N3)(C1)C2` (mixture of isomers) [Example 252] was run?
The IC50 was 317 nM.
